Measured values taken from PubChem BioAssay AID330 (DTP/NCI, 2004).
Where “and” joins values, the source holds several entries; their conditions need not be identical. Equal values may be shown once. Toxic doses and inconclusive results are not listed.

Test system: P388 leukemia ip, CD2F1 mice, survival T/C
Test: NCI In Vivo Anticancer Drug Screen. Data for tumor model P388 Leukemia (intraperitoneal) in CD2F1 (CDF1) mice
Conditions: endpoint: median survival time, higher = longer survival
Method in brief: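 Mice carrying the transplanted tumor received test compound or vehicle. Survival was recorded in each group, and the value is the treated-group measurement divided by that of the vehicle-treated control group.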

[1] = dose: 60.0 mg/kg/injection, schedule: Q01DX005 (ip), vehicle: saline with Tween-80
[2] = dose: 120.0 mg/kg/injection, schedule: Q01DX005 (ip), vehicle: saline with Tween-80
[3] = dose: 100.0 mg/kg/injection, schedule: Q04DX003 (ip), vehicle: Klucel (hydroxypropylcellulose) (HPC)
[4] = dose: 200.0 mg/kg/injection, schedule: Q04DX003 (ip), vehicle: Klucel (hydroxypropylcellulose) (HPC)
[5] = dose: 400.0 mg/kg/injection, schedule: Q04DX003 (ip), vehicle: Klucel (hydroxypropylcellulose) (HPC)

## O=C(O)C1CCC(=O)N1C(=O)OCc1ccccc1 (centres undefined)
dose: 100.0 mg/kg/injection, schedule: Q04DX003 (ip), vehicle: saline with Tween-80
  T/C: 95 % of control
dose: 200.0 mg/kg/injection, schedule: Q04DX003 (ip), vehicle: saline with Tween-80
  T/C: 90 % of control
dose: 400.0 mg/kg/injection, schedule: Q04DX003 (ip), vehicle: saline with Tween-80
  T/C: 90 % of control

## N=C(N)n1ncc2c1CCCC2=O
[1]
  T/C: 100 % of control
[2]
  T/C: 105 % of control
dose: 240.0 mg/kg/injection, schedule: Q01DX005 (ip), vehicle: saline with Tween-80
  T/C: 96 % of control

## COc1ccc(-c2cnc(=O)[nH]c2N)cc1
dose: 60.0 mg/kg/injection, schedule: Q01DX005 (ip), vehicle: suspension in saline
  T/C: 99 % of control
dose: 120.0 mg/kg/injection, schedule: Q01DX005 (ip), vehicle: suspension in saline
  T/C: 97 % of control
dose: 240.0 mg/kg/injection, schedule: Q01DX005 (ip), vehicle: suspension in saline
  T/C: 105 % of control

## S=C1NC2(CCCCCC2)NN1c1ccccc1
dose: 50.0 mg/kg/injection, schedule: Q01DX009 (ip), vehicle: saline with Tween-80
  T/C: 97 % of control
dose: 100.0 mg/kg/injection, schedule: Q01DX009 (ip), vehicle: saline with Tween-80
  T/C: 94 % of control
dose: 200.0 mg/kg/injection, schedule: Q01DX009 (ip), vehicle: saline with Tween-80
  T/C: 91 % of control

## O=[N+]([O-])c1c(N2CCN(CCO)CC2)ccc2nonc12
dose: 50.0 mg/kg/injection, schedule: Q01DX009 (ip), vehicle: suspension in saline
  T/C: 100 % of control
dose: 100.0 mg/kg/injection, schedule: Q01DX009 (ip), vehicle: suspension in saline
  T/C: 108 % of control

## CCOc1ccc(/C=N/NC(=O)c2ccc(O)c(OC)c2)cc1OC
dose: 60.0 mg/kg/injection, schedule: Q01DX005 (ip), vehicle: saline
  T/C: 100 % of control
dose: 120.0 mg/kg/injection, schedule: Q01DX005 (ip), vehicle: saline
  T/C: 102 % of control
dose: 240.0 mg/kg/injection, schedule: Q01DX005 (ip), vehicle: saline
  T/C: 95 % of control

## C=CC12COC(=O)CC1CCC(=O)C2 (centres undefined)
[3]
  T/C: 99 % of control
[4]
  T/C: 100 % of control

## C[C@H](CCC1=NC(C)(C)CO1)C1CCC2[C@@H]3C(O)C[C@@H]4CC(O)CC[C@]4(C)C3CC[C@@]21C (some centres undefined)
[1]
  T/C: 90 % of control
[2]
  T/C: 87 % of control

## Cn1cnc2cc(N3CCCCC3)c(Nc3ccc([N+](=O)[O-])cc3[N+](=O)[O-])cc2c1=O
[3]
  T/C: 103 % of control
[4]
  T/C: 98 % of control
[5]
  T/C: 95 % of control

## Oc1cccc(Nc2ccccc2)c1
dose: 50.0 mg/kg/injection, schedule: Q01DX009 (ip), vehicle: olive oil, sesame oil, peanut oil
  T/C: 108 % of control
dose: 100.0 mg/kg/injection, schedule: Q01DX009 (ip), vehicle: olive oil, sesame oil, peanut oil
  T/C: 103 % of control
dose: 200.0 mg/kg/injection, schedule: Q01DX009 (ip), vehicle: olive oil, sesame oil, peanut oil
  T/C: 111 % of control

## N#Cc1c(-c2ccccc2Cl)c(-c2ccccc2Cl)nn(CCO)c1=O
dose: 25.0 mg/kg/injection, schedule: Q04DX002 (ip), vehicle: distilled water + Tween-80
  T/C: 99 % of control
dose: 50.0 mg/kg/injection, schedule: Q04DX002 (ip), vehicle: distilled water + Tween-80
  T/C: 100 % of control
dose: 100.0 mg/kg/injection, schedule: Q04DX002 (ip), vehicle: distilled water + Tween-80
  T/C: 91 % of control
dose: 200.0 mg/kg/injection, schedule: Q04DX002 (ip), vehicle: distilled water + Tween-80
  T/C: 101 % of control

## CC(=O)OCC#CCN1CCC(C)CC1
dose: 50.0 mg/kg/injection, schedule: Q01DX005 (ip), vehicle: saline
  T/C: 97 % of control
dose: 100.0 mg/kg/injection, schedule: Q01DX005 (ip), vehicle: saline
  T/C: 95 % of control
dose: 200.0 mg/kg/injection, schedule: Q01DX005 (ip), vehicle: saline
  T/C: 102 % of control

## CC(C)NC(=O)OCc1ncn(-c2ccccc2)c1COC(=O)NC(C)C
dose: 12.5 mg/kg/injection, schedule: Q01DX005 (ip), vehicle: Klucel (hydroxypropylcellulose) (HPC)
  T/C: 103 % of control
dose: 25.0 mg/kg/injection, schedule: Q01DX005 (ip), vehicle: Klucel (hydroxypropylcellulose) (HPC)
  T/C: 103 % of control
dose: 50.0 mg/kg/injection, schedule: Q01DX005 (ip), vehicle: Klucel (hydroxypropylcellulose) (HPC)
  T/C: 87 % of control and 97 % of control
dose: 100.0 mg/kg/injection, schedule: Q01DX005 (ip), vehicle: Klucel (hydroxypropylcellulose) (HPC)
  T/C: 87 % of control and 91 % of control

## CCN(CC)C(=O)OC1Cc2ccccc2CCc2ccccc2C1
[3]
  T/C: 103 % of control
[4]
  T/C: 101 % of control
[5]
  T/C: 101 % of control

## C/C=C/C=C/C(=O)Nc1ncc([N+](=O)[O-])s1
dose: 50.0 mg/kg/injection, schedule: Q01DX009 (ip), vehicle: Klucel (hydroxypropylcellulose) (HPC)
  T/C: 103 % of control
dose: 100.0 mg/kg/injection, schedule: Q01DX009 (ip), vehicle: Klucel (hydroxypropylcellulose) (HPC)
  T/C: 104 % of control
dose: 200.0 mg/kg/injection, schedule: Q01DX009 (ip), vehicle: Klucel (hydroxypropylcellulose) (HPC)
  T/C: 109 % of control
